Experimental data published in article PMC12251151, “Understanding Anti-Obesity Potential of Four Porphyrin Compounds by Investigating Pancreatic Lipase Inhibition” (Molecules, 2025).
Where two headings read alike, the source gives them in different places.

What was measured:
pancreatic lipase (PL) [1] = biological target: T1, pancreatic lipase (PL) (Sus scrofa, UniProt P00591); experiment: Mode of pancreatic lipase inhibition (reversibility, Lineweaver-Burk kinetics); assay type: biochemical, porcine
T1 construct: lipase (porcine pancreas); purchased Shanghai Yuanye Co., Ltd., Shanghai, China; host or cells: porcine pancreas
T1 sequence (P00591 1-450): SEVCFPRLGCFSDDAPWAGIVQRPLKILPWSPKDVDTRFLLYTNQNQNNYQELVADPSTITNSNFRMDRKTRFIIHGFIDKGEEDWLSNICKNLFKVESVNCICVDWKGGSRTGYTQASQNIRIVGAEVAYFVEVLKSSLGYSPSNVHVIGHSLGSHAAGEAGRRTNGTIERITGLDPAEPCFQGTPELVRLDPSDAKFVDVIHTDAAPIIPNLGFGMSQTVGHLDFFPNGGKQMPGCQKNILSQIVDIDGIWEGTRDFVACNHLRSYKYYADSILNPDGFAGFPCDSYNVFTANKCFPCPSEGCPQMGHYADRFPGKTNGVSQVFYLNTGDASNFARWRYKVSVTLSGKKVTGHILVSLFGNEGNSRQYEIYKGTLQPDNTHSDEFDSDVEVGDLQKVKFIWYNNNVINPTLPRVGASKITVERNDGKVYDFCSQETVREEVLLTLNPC
Description: In the formula, v , Vmax, Km, and Ki represent reaction rate, maximum reaction rate, Michaelis constant, and free enzyme inhibition constant, respectively. [S] denotes the substrate concentration. [I] denotes the inhibitor concentration.
By analyzing the relationship between enzyme concentration and reaction rate, a fitting straight line was drawn to determine whether it was reversible.
The concentration of PL was fixed at 5 mg/mL, and the concentration of the substrate 4-nitrophenyl laurate was changed (0.40, 0.80, 1.20, 1.60 mg/mL). By analyzing the relationship between the concentration of different substrates and the reaction rate of the enzyme, the Lineweaver–Burk double reciprocal curve was plotted to determine the inhibition type and calculate the inhibition constant.

pancreatic lipase (PL) [2] = biological target: T1, pancreatic lipase (PL); experiment: In vitro stability (temperature and acid-base pre-treatment, then PL inhibition); assay type: physicochemical, porcine; conditions: 20 min treatment with buffers pH 2.0-10.0
Description: Temperature stability study. Sample pre-treatment: 1000 μL samples were bathed in water at different temperatures (30, 40, 50, 60, 70, 80, 90, 100 °C) for 20 min, and cooled rapidly.
Acid-base stability study. Sample pre-treatment: 1000 μL samples were treated with buffers of different pH (2.0, 3.0, 4.0, 5.0, 6.0, 7.0, 8.0, 9.0, and 10.0) for 20 min, and then the pH was adjusted back to 6.9–7.3.
PL inhibition experiments were the same as Section 3.2.1. A total of 200 μL pre-treated four porphyrin compounds, 500 μL of 4-nitrophenyl laurate (0.80 mg/mL), 400 μL of Tris-HCl buffer (pH 8.2, 0.1 mol/L), and 300 μL of pancreatic lipase (5 mg/mL) were reacted in an incubator at 37 °C for 2 h. The reaction solution was centrifuged at 12,000 rpm for 5 min, and 200 μL of the supernatant was added to a 96-well plate. The absorbance at 420 nm was measured. The temperature stability range was determined by comparing the inhibition rate of the samples treated at different temperatures. The range of acid-base stability was determined by comparing the changes in inhibition rate.

pancreatic lipase (PL) [3] = biological target: T1, pancreatic lipase (PL); experiment: Fluorescence quenching and binding interaction with PL (Stern-Volmer, double logarithmic, Van't Hoff); parameters: species or system porcine; conditions: for Kd: read-out: Ka (binding constant) (converted)
Text: Judged by the Stern–Volmer equation, the formula is referred to (3):(3) F0/F=1+KSV[Q]=1+Kqτ0[Q],
The modified Stern–Volmer equation [34], formula reference (4):(4) F0/F=e^KSV[Q]=e^Kqτ0[Q],
The double logarithmic equation:(5) logF0−F/F=logKa+nlog[Q],
In the formula, F0 and F are the fluorescence intensities of the enzyme before and after the addition of four porphyrin compounds. KSV and Kq represent the fluorescence quenching constant and the quenching rate constant, respectively. τ0 (10^−8 s) is the average lifetime of the fluorescent molecule in the absence of the fluorescence quencher. [Q] denotes the concentration of the porphyrin compound. Ka is the binding constant. n is the number of binding sites.
The relevant thermodynamic parameters were calculated by Equations (6) and (7), and the Van’t Hoff curves of four porphyrin compounds and enzymes were obtained:(6) lnKa=−ΔH^0/RT+ΔS^0/R, (7) ΔG^0=ΔH^0−TΔS^0=−RTlnKa,
The method of Li et al. was referred to and appropriate changes were made. A series of concentrations of porphyrin compounds were mixed with pancreatic lipase (5 mg/mL) at a volume ratio of 1:1 and incubated at 298, 304, and 310 K for 5 min. The excitation wavelength of the Hitachi fluorescence spectrometer F-7000 ([…], Japan) was set to 280 nm, the slit width was set to 5 nm, and the scanning range was set to 300–500 nm. In order to eliminate the influence of ‘internal filtering effect’ [42], the following formula is used for correction. Fcor=Fobse^(Aex+Aem)/2 , where Fcor and Fobs are the corrected fluorescence intensity and the experimentally measured fluorescence intensity, and Aex and Aem are the UV absorption values of the system at the excitation and emission wavelengths, respectively.

Which “Reversibility of PL inhibition” value (pancreatic lipase (PL) [1]; enzyme concentration vs reaction rate plots) does the source give for Oc1ccc(-c2c3nc(c(-c4ccc(O)cc4)c4ccc([nH]4)c(-c4ccc(O)cc4)c4nc(c(-c5ccc(O)cc5)c5ccc2[nH]5)C=C4)C=C3)cc1 [THPP, 5,10,15,20-Tetrakis (4-hydroxyphenyl) porphyrin] here?
The value was “reversible”.

What about the Vmax (pancreatic lipase (PL) [1]; inhibitor C 36.84 μM) of the same molecule?
The Vmax was 0.0041 ± 0.0009 ΔOD/min.

And the Vmax (pancreatic lipase (PL) [1]; inhibitor C 73.67 μM)?
The Vmax was 0.0035 ± 0.0013 ΔOD/min.

What about the Vmax (pancreatic lipase (PL) [1]; inhibitor C 147.34 μM) of the same molecule?
The Vmax was 0.0018 ± 0.0007 ΔOD/min.

What about the Vmax (pancreatic lipase (PL) [1]; inhibitor C 221.01 μM) of the same molecule?
Its Vmax is 0.0012 ± 0.0004 ΔOD/min.

And the Vmax (pancreatic lipase (PL) [1]; inhibitor C 294.68 μM)?
Its Vmax is 0.0009 ± 0.0002 ΔOD/min.

And the Ki (pancreatic lipase (PL) [1]; uncompetitive model, intercept replot)?
Its Ki is 37030 ± 186 nM.

And the “pH range in which PL inhibitory activity changed little (acid-base stability)” value (pancreatic lipase (PL) [2])?
Its value is 2.0~10.0 pH.

And the “Fluorescence quenching mechanism on PL” value (pancreatic lipase (PL) [3]; Stern-Volmer analysis, 298-310 K)?
The value was “mixed quenching dominated by static quenching and supplemented by dynamic quenching”.

And the “Kq (quenching rate constant)” value (pancreatic lipase (PL) [3]; T 298 K)?
The value was 1.36 ± 0.02 ×10^12 L/mol/s.

What about the “Ksv (fluorescence quenching constant)” value (pancreatic lipase (PL) [3]; T 298 K) of the same molecule?
Its value is 1.36 ± 0.02 ×10^4 L/mol.

What about the “n (number of binding sites)” value (pancreatic lipase (PL) [3]; T 298 K) of the same molecule?
The value was 1.52.

And the “ΔG^0” value (pancreatic lipase (PL) [3]; T 298 K)?
Its value is -8.91 ± 0.0406 kcal/mol.

What about the Kd (pancreatic lipase (PL) [3]; T 298 K) of the same molecule?
The Kd was 292 nM.

What about the “Kq (quenching rate constant)” value (pancreatic lipase (PL) [3]; T 304 K) of the same molecule?
Its value is 1.17 ± 0.03 ×10^12 L/mol/s.

What about the “Ksv (fluorescence quenching constant)” value (pancreatic lipase (PL) [3]; T 304 K) of the same molecule?
The value was 1.17 ± 0.03 ×10^4 L/mol.

And the “n (number of binding sites)” value (pancreatic lipase (PL) [3]; T 304 K)?
Its value is 1.38.

What about the “ΔG^0” value (pancreatic lipase (PL) [3]; T 304 K) of the same molecule?
The value was -8.363 ± 0.0263 kcal/mol.

And the Kd (pancreatic lipase (PL) [3]; T 304 K)?
The Kd was 968 nM.

And the “Kq (quenching rate constant)” value (pancreatic lipase (PL) [3]; T 310 K)?
The value was 1.11 ± 0.04 ×10^12 L/mol/s.

What about the “Ksv (fluorescence quenching constant)” value (pancreatic lipase (PL) [3]; T 310 K) of the same molecule?
The value was 1.11 ± 0.04 ×10^4 L/mol.

What about the “n (number of binding sites)” value (pancreatic lipase (PL) [3]; T 310 K) of the same molecule?
Its value is 1.33.

What about the “ΔG^0” value (pancreatic lipase (PL) [3]; T 310 K) of the same molecule?
The value was -8.023 ± 0.022 kcal/mol.

What about the Kd (pancreatic lipase (PL) [3]; T 310 K) of the same molecule?
The Kd was 2200 nM.

What about the “ΔH^0” value (pancreatic lipase (PL) [3]; Van't Hoff, 298-310 K) of the same molecule?
The value was -30.946 ± 0.0263 kcal/mol.

And the “ΔS^0” value (pancreatic lipase (PL) [3]; Van't Hoff, 298-310 K)?
Its value is −309.86 ± 0.12 J/mol/k.

What about the “Main driving forces of binding to PL” value (pancreatic lipase (PL) [3]; from signs of ΔH^0 and ΔS^0) of the same molecule?
Its value is “hydrogen bonds and van der Waals forces”.
